From publication PMC4685510, “A Cell Biologist’s Field Guide to Aurora Kinase Inhibitors” (Frontiers in Oncology, 2015) come the findings set out here.

Common to all, as to assay: biochemical
Common to all, as to format: biochemical

For assay [1], the target named is T1, 363 human kinases (including Aurora A/B/C) (Homo sapiens, UniProt O14733).
T1 sequence (O14733 1-419): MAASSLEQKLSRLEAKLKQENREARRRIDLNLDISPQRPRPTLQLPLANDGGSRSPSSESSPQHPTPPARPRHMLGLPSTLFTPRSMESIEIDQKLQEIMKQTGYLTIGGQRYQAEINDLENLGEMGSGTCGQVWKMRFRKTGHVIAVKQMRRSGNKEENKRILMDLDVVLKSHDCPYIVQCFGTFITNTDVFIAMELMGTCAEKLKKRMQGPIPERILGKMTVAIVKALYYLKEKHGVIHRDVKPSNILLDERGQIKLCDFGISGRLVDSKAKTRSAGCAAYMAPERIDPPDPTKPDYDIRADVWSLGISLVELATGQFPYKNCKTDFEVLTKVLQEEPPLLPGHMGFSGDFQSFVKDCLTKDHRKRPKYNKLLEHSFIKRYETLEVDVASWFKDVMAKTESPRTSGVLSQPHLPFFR
Particulars: MKK7; for remaining activity at 0.1 µM: 100 nM; for remaining activity at 0.1 µM / remaining activity at 0.5 µM: read-out: % Enzyme Activity (relative to DMSO controls).
Source text: (§1) However, the Aurora A/B selectivity ratios derived from our in vitro and in vivo data can be compared to prioritize inhibitors.

For assay [2], the target named is 363 human kinases (including Aurora A/B/C) (Homo sapiens, UniProt Q14012). Particulars: CAMK1a, [ATP] 20 µM; for remaining activity at 0.1 µM: 100 nM; for remaining activity at 0.1 µM / remaining activity at 0.5 µM: read-out: % Enzyme Activity (relative to DMSO controls).
Chain of 363 human kinases (including Aurora A/B/C) (Homo sapiens, UniProt Q14012) (Q14012 whole entry): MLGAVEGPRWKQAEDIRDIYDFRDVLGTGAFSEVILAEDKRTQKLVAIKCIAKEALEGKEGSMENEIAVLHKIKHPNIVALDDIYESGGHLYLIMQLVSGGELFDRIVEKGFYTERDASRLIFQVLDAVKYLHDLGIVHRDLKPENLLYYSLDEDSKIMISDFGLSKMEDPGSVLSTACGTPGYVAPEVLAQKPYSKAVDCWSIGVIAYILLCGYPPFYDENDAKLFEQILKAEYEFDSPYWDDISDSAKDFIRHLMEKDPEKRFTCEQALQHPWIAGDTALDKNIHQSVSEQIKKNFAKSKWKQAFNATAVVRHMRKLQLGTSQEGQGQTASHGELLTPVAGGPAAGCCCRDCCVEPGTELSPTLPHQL
Source text: as §1
In assay [3] the target is 363 human kinases (including Aurora A/B/C) (Homo sapiens, UniProt O94804). Particulars: LOK/STK10; for remaining activity at 0.1 µM: 100 nM; for remaining activity at 0.1 µM / remaining activity at 0.5 µM: read-out: % Enzyme Activity (relative to DMSO controls).
Chain of 363 human kinases (including Aurora A/B/C) (Homo sapiens, UniProt O94804) (O94804 whole entry): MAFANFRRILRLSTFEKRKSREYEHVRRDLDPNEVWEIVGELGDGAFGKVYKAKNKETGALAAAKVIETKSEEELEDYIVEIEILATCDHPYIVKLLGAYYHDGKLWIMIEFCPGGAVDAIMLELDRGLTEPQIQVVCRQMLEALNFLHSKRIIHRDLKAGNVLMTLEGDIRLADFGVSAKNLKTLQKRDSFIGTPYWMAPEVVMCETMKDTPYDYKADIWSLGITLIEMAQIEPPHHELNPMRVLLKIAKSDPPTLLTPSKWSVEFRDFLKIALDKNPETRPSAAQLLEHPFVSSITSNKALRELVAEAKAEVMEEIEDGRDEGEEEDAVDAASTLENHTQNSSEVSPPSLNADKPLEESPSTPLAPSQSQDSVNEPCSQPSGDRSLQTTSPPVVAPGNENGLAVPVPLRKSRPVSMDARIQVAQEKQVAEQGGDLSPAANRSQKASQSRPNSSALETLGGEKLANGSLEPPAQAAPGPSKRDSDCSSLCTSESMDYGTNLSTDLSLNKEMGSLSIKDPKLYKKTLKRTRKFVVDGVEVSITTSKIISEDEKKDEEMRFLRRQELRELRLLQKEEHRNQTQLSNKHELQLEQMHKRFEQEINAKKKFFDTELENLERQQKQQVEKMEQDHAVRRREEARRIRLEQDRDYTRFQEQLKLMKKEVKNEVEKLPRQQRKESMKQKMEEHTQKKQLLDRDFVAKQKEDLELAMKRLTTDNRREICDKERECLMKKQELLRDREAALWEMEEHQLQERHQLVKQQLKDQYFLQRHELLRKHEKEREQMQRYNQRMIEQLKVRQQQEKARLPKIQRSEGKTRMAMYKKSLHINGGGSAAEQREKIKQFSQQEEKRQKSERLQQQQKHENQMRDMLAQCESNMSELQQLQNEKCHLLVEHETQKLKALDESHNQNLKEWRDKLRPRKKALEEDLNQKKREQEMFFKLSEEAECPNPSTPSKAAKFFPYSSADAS
Source text: as §1
Assay [4] addresses 363 human kinases (including Aurora A/B/C) (Homo sapiens, UniProt P41240). Particulars: CSK, [ATP] 15 µM; for remaining activity at 0.1 µM: 100 nM; for remaining activity at 0.1 µM / remaining activity at 0.5 µM: read-out: % Enzyme Activity (relative to DMSO controls).
Source text: as §1
The target in assay [5] is 363 human kinases (including Aurora A/B/C) (Homo sapiens, UniProt O14578). Particulars: STK21/CIT; for remaining activity at 0.1 µM: 100 nM; for remaining activity at 0.1 µM / remaining activity at 0.5 µM: read-out: % Enzyme Activity (relative to DMSO controls).
Chain of 363 human kinases (including Aurora A/B/C) (Homo sapiens, UniProt O14578) (O14578 whole entry): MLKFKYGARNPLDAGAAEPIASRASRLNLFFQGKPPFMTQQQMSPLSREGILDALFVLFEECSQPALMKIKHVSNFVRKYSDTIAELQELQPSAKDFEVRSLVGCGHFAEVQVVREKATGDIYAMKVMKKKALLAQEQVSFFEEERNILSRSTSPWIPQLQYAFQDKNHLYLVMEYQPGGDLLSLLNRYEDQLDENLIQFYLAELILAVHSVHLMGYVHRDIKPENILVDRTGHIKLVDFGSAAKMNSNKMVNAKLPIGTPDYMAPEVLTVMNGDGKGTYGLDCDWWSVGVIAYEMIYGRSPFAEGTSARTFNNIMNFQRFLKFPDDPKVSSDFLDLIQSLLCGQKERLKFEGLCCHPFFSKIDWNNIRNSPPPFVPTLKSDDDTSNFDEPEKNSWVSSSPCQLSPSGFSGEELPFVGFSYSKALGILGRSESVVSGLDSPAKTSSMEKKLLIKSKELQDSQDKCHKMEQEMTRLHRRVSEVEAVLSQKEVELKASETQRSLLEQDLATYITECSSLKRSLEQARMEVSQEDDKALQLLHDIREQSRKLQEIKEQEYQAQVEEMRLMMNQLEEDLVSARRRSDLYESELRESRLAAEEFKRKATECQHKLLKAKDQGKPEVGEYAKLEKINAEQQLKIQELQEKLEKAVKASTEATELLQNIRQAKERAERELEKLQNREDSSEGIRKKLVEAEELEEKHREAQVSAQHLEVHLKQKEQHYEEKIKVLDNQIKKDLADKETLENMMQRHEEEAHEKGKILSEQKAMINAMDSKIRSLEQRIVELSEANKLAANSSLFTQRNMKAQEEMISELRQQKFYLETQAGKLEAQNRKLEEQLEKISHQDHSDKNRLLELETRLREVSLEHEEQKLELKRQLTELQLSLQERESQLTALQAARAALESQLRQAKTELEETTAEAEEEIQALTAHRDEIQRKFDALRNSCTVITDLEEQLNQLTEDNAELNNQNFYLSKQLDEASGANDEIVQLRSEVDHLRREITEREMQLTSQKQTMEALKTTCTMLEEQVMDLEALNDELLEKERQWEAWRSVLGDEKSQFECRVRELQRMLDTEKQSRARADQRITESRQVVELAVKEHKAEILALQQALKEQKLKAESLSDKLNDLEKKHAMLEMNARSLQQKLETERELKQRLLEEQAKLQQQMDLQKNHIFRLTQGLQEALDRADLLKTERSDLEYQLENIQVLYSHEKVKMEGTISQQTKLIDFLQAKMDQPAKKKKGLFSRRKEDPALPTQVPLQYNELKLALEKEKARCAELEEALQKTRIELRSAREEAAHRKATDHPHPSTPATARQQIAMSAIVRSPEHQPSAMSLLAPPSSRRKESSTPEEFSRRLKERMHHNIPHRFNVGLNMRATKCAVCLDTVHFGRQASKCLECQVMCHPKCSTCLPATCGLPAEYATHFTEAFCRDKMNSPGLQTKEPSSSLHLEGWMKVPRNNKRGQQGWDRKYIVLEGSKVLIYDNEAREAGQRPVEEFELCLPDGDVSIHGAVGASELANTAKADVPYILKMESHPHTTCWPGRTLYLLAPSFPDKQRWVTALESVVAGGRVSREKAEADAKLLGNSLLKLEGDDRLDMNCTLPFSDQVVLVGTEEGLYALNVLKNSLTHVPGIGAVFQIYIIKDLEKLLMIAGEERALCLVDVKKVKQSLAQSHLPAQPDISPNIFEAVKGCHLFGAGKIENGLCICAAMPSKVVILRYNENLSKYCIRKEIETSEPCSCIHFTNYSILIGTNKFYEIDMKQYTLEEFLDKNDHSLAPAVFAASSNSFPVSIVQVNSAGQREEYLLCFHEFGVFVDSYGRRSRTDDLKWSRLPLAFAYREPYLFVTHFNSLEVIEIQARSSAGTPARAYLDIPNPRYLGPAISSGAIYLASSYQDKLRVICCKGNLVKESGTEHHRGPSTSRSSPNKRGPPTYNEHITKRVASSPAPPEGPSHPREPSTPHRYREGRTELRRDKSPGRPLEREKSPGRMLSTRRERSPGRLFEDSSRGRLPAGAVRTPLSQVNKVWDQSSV
Source text: as §1
Assay [6] deals with 363 human kinases (including Aurora A/B/C) (Homo sapiens, UniProt Q9UQM7). To be noted: CAMK2a, [ATP] 100 µM; for remaining activity at 0.1 µM: 100 nM; for remaining activity at 0.1 µM / remaining activity at 0.5 µM: read-out: % Enzyme Activity (relative to DMSO controls).
Chain of 363 human kinases (including Aurora A/B/C) (Homo sapiens, UniProt Q9UQM7) (Q9UQM7 whole entry): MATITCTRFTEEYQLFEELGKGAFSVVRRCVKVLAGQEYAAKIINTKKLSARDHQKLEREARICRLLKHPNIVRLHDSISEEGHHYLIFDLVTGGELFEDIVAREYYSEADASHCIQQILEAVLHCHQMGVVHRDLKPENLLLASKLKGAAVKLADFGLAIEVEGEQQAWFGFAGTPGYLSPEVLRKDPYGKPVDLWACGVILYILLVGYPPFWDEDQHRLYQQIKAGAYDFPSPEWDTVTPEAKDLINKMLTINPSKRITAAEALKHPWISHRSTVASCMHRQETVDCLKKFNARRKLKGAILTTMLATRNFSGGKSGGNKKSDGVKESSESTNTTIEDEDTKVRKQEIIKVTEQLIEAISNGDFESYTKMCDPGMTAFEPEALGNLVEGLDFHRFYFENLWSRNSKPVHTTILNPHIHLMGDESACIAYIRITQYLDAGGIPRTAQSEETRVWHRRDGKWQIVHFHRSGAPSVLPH
Source text: as §1
The target in assay [7] is 363 human kinases (including Aurora A/B/C) (Homo sapiens, UniProt Q9NQU5). Particulars: PAK6; for remaining activity at 0.1 µM: 100 nM; for remaining activity at 0.1 µM / remaining activity at 0.5 µM: read-out: % Enzyme Activity (relative to DMSO controls).
Chain of 363 human kinases (including Aurora A/B/C) (Homo sapiens, UniProt Q9NQU5) (Q9NQU5 whole entry): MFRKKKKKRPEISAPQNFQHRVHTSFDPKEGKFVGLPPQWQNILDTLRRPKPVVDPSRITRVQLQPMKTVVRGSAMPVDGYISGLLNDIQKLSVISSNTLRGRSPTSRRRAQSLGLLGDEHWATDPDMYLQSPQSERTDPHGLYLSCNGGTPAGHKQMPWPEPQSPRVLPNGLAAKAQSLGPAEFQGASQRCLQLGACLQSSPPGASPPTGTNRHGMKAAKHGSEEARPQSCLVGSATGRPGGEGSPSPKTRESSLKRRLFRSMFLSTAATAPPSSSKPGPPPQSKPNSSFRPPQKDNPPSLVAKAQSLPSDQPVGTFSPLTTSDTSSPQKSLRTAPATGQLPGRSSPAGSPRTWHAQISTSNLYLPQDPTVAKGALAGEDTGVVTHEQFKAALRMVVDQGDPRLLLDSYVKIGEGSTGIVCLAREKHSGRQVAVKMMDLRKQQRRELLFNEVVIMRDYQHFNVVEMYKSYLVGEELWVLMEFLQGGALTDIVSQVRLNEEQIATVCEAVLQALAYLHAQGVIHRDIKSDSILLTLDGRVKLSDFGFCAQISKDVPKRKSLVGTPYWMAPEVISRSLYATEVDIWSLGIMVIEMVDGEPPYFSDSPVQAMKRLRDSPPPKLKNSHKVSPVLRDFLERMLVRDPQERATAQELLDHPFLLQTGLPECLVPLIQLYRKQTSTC
Source text: as §1
The target of assay [8] is T2, 363 human kinases (including Aurora A/B/C) (Homo sapiens, UniProt Q8IYT8).
T2 sequence (Q8IYT8 1-1036): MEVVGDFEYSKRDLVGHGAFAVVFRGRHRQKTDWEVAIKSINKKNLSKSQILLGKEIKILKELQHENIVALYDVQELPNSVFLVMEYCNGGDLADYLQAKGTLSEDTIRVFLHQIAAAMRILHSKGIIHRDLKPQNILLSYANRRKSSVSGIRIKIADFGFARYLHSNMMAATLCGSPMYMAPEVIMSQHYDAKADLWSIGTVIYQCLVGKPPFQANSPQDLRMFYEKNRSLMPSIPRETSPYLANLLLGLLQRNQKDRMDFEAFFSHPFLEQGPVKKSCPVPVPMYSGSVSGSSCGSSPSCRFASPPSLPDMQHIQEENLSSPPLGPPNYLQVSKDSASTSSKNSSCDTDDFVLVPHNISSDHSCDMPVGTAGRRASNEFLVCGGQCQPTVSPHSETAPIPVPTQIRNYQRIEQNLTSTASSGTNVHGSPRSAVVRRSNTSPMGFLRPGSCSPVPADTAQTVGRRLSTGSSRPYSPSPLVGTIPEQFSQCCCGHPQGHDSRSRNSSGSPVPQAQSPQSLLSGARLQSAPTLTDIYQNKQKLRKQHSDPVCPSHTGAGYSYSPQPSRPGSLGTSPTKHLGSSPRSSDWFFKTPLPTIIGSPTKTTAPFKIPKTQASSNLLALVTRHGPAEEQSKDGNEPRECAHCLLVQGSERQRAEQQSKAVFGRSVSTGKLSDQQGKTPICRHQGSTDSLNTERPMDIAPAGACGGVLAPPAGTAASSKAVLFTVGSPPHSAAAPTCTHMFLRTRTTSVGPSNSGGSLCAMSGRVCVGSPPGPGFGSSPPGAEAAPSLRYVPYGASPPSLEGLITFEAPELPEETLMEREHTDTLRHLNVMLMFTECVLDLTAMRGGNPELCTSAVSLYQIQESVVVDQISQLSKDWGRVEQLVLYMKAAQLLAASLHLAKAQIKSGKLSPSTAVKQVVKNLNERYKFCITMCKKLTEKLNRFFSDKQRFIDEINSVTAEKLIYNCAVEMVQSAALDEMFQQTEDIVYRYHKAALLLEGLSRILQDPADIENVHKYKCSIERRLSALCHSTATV
Particulars: ULK2; for remaining activity at 0.1 µM: 100 nM; for remaining activity at 0.1 µM / remaining activity at 0.5 µM: read-out: % Enzyme Activity (relative to DMSO controls).
Source text: as §1

Chain of 363 human kinases (including Aurora A/B/C) (Homo sapiens, UniProt P41240) (P41240 whole entry): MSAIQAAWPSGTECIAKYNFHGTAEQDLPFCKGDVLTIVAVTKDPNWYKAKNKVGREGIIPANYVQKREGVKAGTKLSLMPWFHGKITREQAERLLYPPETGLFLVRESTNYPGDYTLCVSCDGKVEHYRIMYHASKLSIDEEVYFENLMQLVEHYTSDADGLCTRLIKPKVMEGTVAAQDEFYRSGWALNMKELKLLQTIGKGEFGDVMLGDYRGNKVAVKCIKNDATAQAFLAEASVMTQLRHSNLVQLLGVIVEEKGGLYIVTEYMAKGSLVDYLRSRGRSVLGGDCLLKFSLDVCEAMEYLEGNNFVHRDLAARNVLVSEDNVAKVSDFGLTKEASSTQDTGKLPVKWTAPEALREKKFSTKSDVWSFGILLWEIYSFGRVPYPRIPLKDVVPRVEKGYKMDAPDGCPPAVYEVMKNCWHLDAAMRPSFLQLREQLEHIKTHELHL

Take `CCn1cc(-c2ccnc3[nH]c(-c4cccc(CN(C)C)c4)cc23)c(-c2ccc(NC(=O)N(C)C)cc2)n1` [GSK1070916]: the remaining activity at 0.1 µM in assay [1] turned out to be 95.4%; in assay [2] it was 98.6%; in assay [3] it was 73.2%; in assay [4] it was 99.8%; in assay [5], 100%; in assay [6], 102%. Further, the remaining activity at 0.1 µM in assay [7] was found to be 103%; in assay [8], 141%.

Consider `O=C(O)[C@]1(Cc2cccc(Nc3nccs3)n2)CC[C@@H](Oc2cccc(Cl)c2F)CC1` [MK-5108], for which the remaining activity at 0.1 µM came to 99.5% in assay [1]; 102% in assay [2]; 34% in assay [3]; 93.9% in assay [4]; 115% in assay [5]; 95.4% in assay [6]. In addition, the remaining activity at 0.1 µM was determined as 99.8% in assay [7] and 113% in assay [8]. For the same molecule, the remaining activity at 0.5 µM in assay [1] (500 nM) stood at 101%; in assay [2] (500 nM) it was 97.1%; in assay [3] (500 nM) it was 10.3%; in assay [4] (500 nM) it was 67.9%; in assay [5] (500 nM), 102%; in assay [6] (500 nM), 101%. Further, the remaining activity at 0.5 µM was 97% in assay [7] (500 nM) and 134% in assay [8] (500 nM).

As for `O=C(c1cccc(Cl)c1F)N1CCN(Cc2cccc(Nc3nccs3)n2)CC1` [MK-8745], the “% Enzyme Activity (relative to DMSO controls)” value in assay [1] (500 nM) is 95.34%; in assay [2] (500 nM), 94.06%; in assay [3] (500 nM) it was 49.80%; in assay [4] (500 nM), 94.61%; in assay [5] (500 nM) it was 101.37%; in assay [6] (500 nM), 101.40%. The “% Enzyme Activity (relative to DMSO controls)” value was found to be 89.27% in assay [7] (500 nM) and 140.35% in assay [8] (500 nM). Besides, the remaining activity at 0.5 µM in assay [1] (500 nM) was 98%; in assay [2] (500 nM), 95.5%; in assay [3] (500 nM), 52.1%; in assay [4] (500 nM), 95.8%; in assay [5] (500 nM) it was 104%; in assay [6] (500 nM), 104%. In addition, the remaining activity at 0.5 µM in assay [7] (500 nM) came to 90.3%; in assay [8] (500 nM), 144%.
